Source: patent US9695155B2, “Herbicidal substituted pyrimidinyloxy benzene compounds” (E. I. DU PONT DE NEMOURS AND COMPANY, priority 2013, dated 2017)

Assays:
[1] = tested on: chickweed; test: Test C postemergence; format: in vivo, Stellaria media; details: for Plant response rating, Chickweed / Chickweed plant response rating: scale 0 to 100 (0 no effect, 100 complete control)
Summary of the method: (§1)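 Rated visually on 0–100 (100 = complete control) after 13–15 days under glass. Treatments went onto freshly seeded loam/sand soil or onto emerged plants at the 1- to 4-leaf stage, using a surfactant-containing solvent formulation.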

[2] = tested on: Italian ryegrass; test: Test C postemergence; format: in vivo, Lolium multiflorum; details: for Plant response rating, Ryegrass, Italian / Ryegrass, Italian plant response rating: scale 0 to 100 (0 no effect, 100 complete control)
Summary of the method: as §1

[3] = tested on: giant foxtail; test: Test A preemergence; format: in vivo, Setaria faberii; details: for Foxtail, Giant plant response rating: 500 g ai/ha
Summary of the method: (§2)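 Visual injury scored 0–100 (100 = complete control) against untreated controls about 10 days after treatment in a greenhouse. Test chemicals, formulated with surfactant in non-phytotoxic solvent, were sprayed on soil preemergence or on 2-10 cm, one- to two-leaf plants postemergence.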

[4] = tested on: pigweed; test: Test A postemergence; format: in vivo, Amaranthus retroflexus
Summary of the method: as §2

[5] = tested on: large (Lg) crabgrass; test: Test A postemergence; format: in vivo, Digitaria sanguinalis
Summary of the method: as §2

[6] = tested on: oilseed rape; test: Test C postemergence; format: in vivo, Brassica napus; details: for Plant response rating, Oilseed Rape / Oilseed Rape plant response rating: scale 0 to 100 (0 no effect, 100 complete control)
Summary of the method: as §1

[7] = tested on: waterhemp; test: Test C postemergence; format: in vivo, Amaranthus rudis; details: for Plant response rating, Waterhemp / Waterhemp plant response rating: scale 0 to 100 (0 no effect, 100 complete control)
Summary of the method: as §1

[8] = tested on: soybean; test: Test C postemergence; format: in vivo, Glycine max; details: for Plant response rating, Soybean / Soybean plant response rating: scale 0 to 100 (0 no effect, 100 complete control)
Summary of the method: as §1

[9] = tested on: sedge, umbrella; test: Test B flooded paddy test; format: in vivo, Cyperus difformis; details: Flood, 250 g ai/ha; 0 to 100 scale where 0 is no effect and 100 is complete control
Summary of the method: (§3)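 Post-emergence paddy-water application at the 2-leaf stage, with 3 cm flood kept for the whole test. Response was judged visually relative to controls after 13 to 15 greenhouse days, 0 indicating no effect and 100 complete control.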

[10] = tested on: rice; test: Test B flooded paddy test; format: in vivo, Oryza sativa; details: Flood, 250 g ai/ha; 0 to 100 scale where 0 is no effect and 100 is complete control
Summary of the method: as §3

[11] = tested on: corn; test: Test A preemergence; format: in vivo, Zea mays
Summary of the method: as §2

[12] = tested on: lambsquarters; test: Test C postemergence; format: in vivo, Chenopodium album; details: for Plant response rating, Lambsquarters / Lambsquarters plant response rating: scale 0 to 100 (0 no effect, 100 complete control)
Summary of the method: as §1

[13] = tested on: wheat; test: Test A preemergence; format: in vivo, Triticum aestivum
Summary of the method: as §2

[14] = tested on: galium; test: Test C postemergence; format: in vivo, Galium aparine; details: for Plant response rating, Galium / Galium plant response rating: scale 0 to 100 (0 no effect, 100 complete control)
Summary of the method: as §1

[15] = tested on: giant foxtail; test: Test A postemergence; format: in vivo, Setaria faberii
Summary of the method: as §2

[16] = tested on: barnyardgrass; test: Test B flooded paddy test; format: in vivo, Echinochloa crus-galli; details: Flood, 250 g ai/ha; 0 to 100 scale where 0 is no effect and 100 is complete control
Summary of the method: as §3

[17] = Postemergence, 31 g ai/ha, 13 to 15 days
[18] = 125 g ai/ha, 0 to 100 scale where 0 is no effect and 100 is complete control
[19] = 500 g ai/ha, 0 to 100 scale, 0 no effect, 100 complete control
[20] = 500 g ai/ha, 0 to 100 scale, 0 no effect, 100 complete control, approx. 10 days
[21] = 16 g ai/ha, postemergence, 0 is no effect, 100 is complete control
[22] = 31 g ai/ha, postemergence, visual rating, 13 to 15 days
[23] = 125 g ai/ha, postemergence, visual rating
[24] = Postemergence, 62 g ai/ha, 13 to 15 days
[25] = 31 g ai/ha, 0 to 100 scale, 0 no effect, 100 complete control
[26] = 125 g ai/ha, 0 to 100 scale, 0 no effect, 100 complete control
[27] = 500 g ai/ha, 0 to 100 scale where 0 is no effect and 100 is complete control

Fc1cnc(Oc2ccccc2-n2cc(C(F)(F)F)cn2)nc1 [Compound 47]
Plant response rating (0 to 100), Chickweed ([1]; 125 g ai/ha, postemergence): 50
Plant response rating (0 to 100), Chickweed ([1]; 250 g ai/ha, postemergence): 50
Plant response rating, Chickweed [1, 17]: 5
Plant response rating, Chickweed ([1]; Postemergence, 62 g ai/ha): 5
Plant response rating (0 to 100), Ryegrass, Italian ([2]; 125 g ai/ha, postemergence): 0
Plant response rating (0 to 100), Ryegrass, Italian ([2]; 250 g ai/ha, postemergence): 0
Plant response rating, Ryegrass, Italian [2, 17]: 0
Plant response rating, Ryegrass, Italian ([2]; Postemergence, 62 g ai/ha): 0
Plant response rating, Foxtail, Giant [3, 18]: 100
Foxtail, Giant plant response rating ([3]; 0 to 100 scale, 0 no effect, 100 complete control, approx. 10 days): 100
Plant response rating, Pigweed [4, 18]: 100
Plant response rating, Pigweed [4, 19]: 100
Plant response rating, Crabgrass, Large [5, 18]: 70
Plant response rating, Crabgrass, Large [5, 19]: 100
Plant response rating (0 to 100), Oilseed Rape ([6]; 125 g ai/ha, postemergence): 55
Plant response rating (0 to 100), Oilseed Rape ([6]; 250 g ai/ha, postemergence): 55
Plant response rating, Oilseed Rape [6, 17]: 15
Plant response rating, Oilseed Rape ([6]; Postemergence, 62 g ai/ha): 50
Plant response rating (0 to 100), Waterhemp ([7]; 125 g ai/ha, postemergence): 100
Plant response rating (0 to 100), Waterhemp ([7]; 250 g ai/ha, postemergence): 100
Plant response rating, Waterhemp [7, 17]: 100
Plant response rating, Waterhemp ([7]; Postemergence, 62 g ai/ha): 100
Plant response rating (0 to 100), Soybean ([8]; 125 g ai/ha, postemergence): 65
Plant response rating (0 to 100), Soybean ([8]; 250 g ai/ha, postemergence): 65
Plant response rating, Soybean [8, 17]: 35
Plant response rating, Soybean ([8]; Postemergence, 62 g ai/ha): 45
Plant response rating, Sedge, Umbrella [9]: 70
Plant response rating, Rice [10]: 35
Plant response rating, Corn [11, 18]: 0
Corn plant response rating [11, 20]: 90
Plant response rating (0 to 100), Lambsquarters ([12]; 125 g ai/ha, postemergence): 60
Plant response rating (0 to 100), Lambsquarters ([12]; 250 g ai/ha, postemergence): 90
Plant response rating, Lambsquarters [12, 17]: 30
Plant response rating, Lambsquarters ([12]; Postemergence, 62 g ai/ha): 45
Plant response rating, Wheat [13, 18]: 0
Wheat plant response rating [13, 20]: 40
Plant response rating (0 to 100), Galium ([14]; 125 g ai/ha, postemergence): 55
Plant response rating (0 to 100), Galium ([14]; 250 g ai/ha, postemergence): 65
Plant response rating, Galium [14, 17]: 35
Plant response rating, Galium ([14]; Postemergence, 62 g ai/ha): 50
Plant response rating, Foxtail, Giant [15, 18]: 80
Plant response rating, Foxtail, Giant [15, 19]: 100
Plant response rating, Barnyardgrass [16]: 10

FC(F)Oc1cnn(-c2c(Cl)cccc2Oc2ncc(Cl)cn2)c1 [Compound 258]
Plant response rating (0 to 100), Chickweed [1, 21]: 50
Chickweed plant response rating [1, 22]: 50
Plant response rating, Chickweed [1, 23]: 95
Plant response rating, Chickweed [1, 24]: 90
Plant response rating (0 to 100), Ryegrass, Italian [2, 21]: 0
Ryegrass, Italian plant response rating [2, 22]: 0
Plant response rating, Ryegrass, Italian [2, 23]: 30
Plant response rating, Ryegrass, Italian [2, 24]: 0
Plant response rating, Foxtail, Giant ([3]; 31 g ai/ha, 0 to 100 scale where 0 is no effect and 100 is complete control, visual, approximately 10 days): 60
Foxtail, Giant plant response rating (0 to 100 scale) ([3]; 125 g ai/ha): 100
Plant response rating, Pigweed [4, 25]: 80
Plant response rating, Pigweed [4, 26]: 100
Plant response rating (0 to 100), Oilseed Rape [6, 21]: 70
Oilseed Rape plant response rating [6, 22]: 85
Plant response rating, Oilseed Rape [6, 23]: 98
Plant response rating, Oilseed Rape [6, 24]: 95
Plant response rating (0 to 100), Waterhemp [7, 21]: 65
Waterhemp plant response rating [7, 22]: 70
Plant response rating, Waterhemp [7, 23]: 90
Plant response rating, Waterhemp [7, 24]: 80
Plant response rating (0 to 100), Soybean [8, 21]: 50
Soybean plant response rating [8, 22]: 75
Plant response rating, Soybean [8, 23]: 95
Plant response rating, Soybean [8, 24]: 70
Plant response rating, Sedge, Umbrella [9]: 95
Plant response rating, Rice [10]: 30
Plant response rating (0 to 100), Lambsquarters [12, 21]: 50
Lambsquarters plant response rating [12, 22]: 65
Plant response rating, Lambsquarters [12, 23]: 90
Plant response rating, Lambsquarters [12, 24]: 90
Plant response rating (0 to 100), Galium [14, 21]: 85
Galium plant response rating [14, 22]: 90
Plant response rating, Galium [14, 23]: 100
Plant response rating, Galium [14, 24]: 95
Plant response rating, Foxtail, Giant [15, 25]: 20
Plant response rating, Foxtail, Giant [15, 26]: 70
Plant response rating, Barnyardgrass [16]: 60

N#Cc1cn(-c2c(C#N)cccc2Oc2ncc(Cl)cn2)nn1 [Compound 273]
Plant response rating (0 to 100), Chickweed [1, 21]: 10
Chickweed plant response rating [1, 22]: 30
Plant response rating, Chickweed [1, 23]: 70
Plant response rating, Chickweed [1, 24]: 35
Plant response rating (0 to 100), Ryegrass, Italian [2, 21]: 5
Ryegrass, Italian plant response rating [2, 22]: 5
Plant response rating, Ryegrass, Italian [2, 23]: 10
Plant response rating, Ryegrass, Italian [2, 24]: 5
Foxtail, Giant plant response rating (0 to 100 scale) ([3]; 125 g ai/ha): 90
Foxtail, Giant plant response rating ([3]; 0 to 100 scale where 0 is no effect and 100 is complete control): 90
Plant response rating, Pigweed [4, 26]: 100
Plant response rating, Pigweed [4, 27]: 100
Plant response rating (0 to 100), Oilseed Rape [6, 21]: 0
Oilseed Rape plant response rating [6, 22]: 0
Plant response rating, Oilseed Rape [6, 23]: 25
Plant response rating, Oilseed Rape [6, 24]: 5
Plant response rating (0 to 100), Waterhemp [7, 21]: 35
Waterhemp plant response rating [7, 22]: 40
Plant response rating, Waterhemp [7, 23]: 80
Plant response rating, Waterhemp [7, 24]: 65
Plant response rating (0 to 100), Soybean [8, 21]: 60
Soybean plant response rating [8, 22]: 70
Plant response rating, Soybean [8, 23]: 90
Plant response rating, Soybean [8, 24]: 90
Plant response rating, Sedge, Umbrella [9]: 75
Plant response rating, Rice [10]: 0
Plant response rating (0 to 100), Lambsquarters [12, 21]: 25
Lambsquarters plant response rating [12, 22]: 40
Plant response rating, Lambsquarters [12, 23]: 80
Plant response rating, Lambsquarters [12, 24]: 85
Plant response rating (0 to 100), Galium [14, 21]: 55
Galium plant response rating [14, 22]: 60
Plant response rating, Galium [14, 23]: 80
Plant response rating, Galium [14, 24]: 60
Plant response rating, Foxtail, Giant [15, 26]: 70
Plant response rating, Foxtail, Giant [15, 27]: 90
Plant response rating, Barnyardgrass [16]: 0
